The target in assay [1] is T1, LigT (Escherichia coli, UniProt Z9E1N8ZL79).
T1 construct: N-terminal His6 tag with TEV site, tag cut with TEV protease; expressed in E. coli BL21(DE3); 20 kDa; monomer in solution
Nature of the assay: isothermal titration calorimetry; co-crystal structure. The conditions noted are these: 10 mM HEPES pH 7.5, 0.2 M NaCl, 0.1 mM TCEP, 25 °C, active site, read-out: dissociation constant. It is filed as binding. For orientation: Isothermal titration calorimetry measures the heat released or taken up as one component is titrated into another.

The target in assay [2] is T1, LigT. The assay is described as follows: turnover to […]′-AMP seen in crystal. Particulars: 0.1 M Tris-HCl pH 7.4-7.5, 0.2 M MgCl2, PEG 8000; 5 mM ligand. It is filed as biochemical.

Like-named read-outs stand apart in the source and are kept apart here.

Take `Nc1ncnc2c1ncn2[C@@H]1O[C@H](CO)[C@@H](OP(=O)(O)O)[C@H]1O` [3′-AMP]: the Kd in assay [1] was 180 µM.

Regarding `Nc1ncnc2c1ncn2[C@@H]1O[C@H](COP(=O)(O)OP(=O)(O)OP(=O)(O)O)[C@@H](O)[C@H]1O` [ATP], the Kd in assay [1] (second crystal form 5LDP) was 70 µM. As to `NC(=O)c1ccc[n+]([C@@H]2O[C@H](COP(=O)(O)OP(=O)(O)OC[C@H]3O[C@@H](n4cnc5c(N)ncnc54)[C@H](OP(=O)(O)O)[C@@H]3O)[C@@H](O)[C@H]2O)c1` [NADP^+], in assay [1] (product analogue), the Kd stood at 40 µM.

In the case of `Nc1ncnc2c1ncn2[C@@H]1O[C@H](CO)[C@@H](O)[C@H]1OP(=O)(O)O` [2′-AMP], the Kd in assay [1] (crystal grown with 2′,3′-cAMP) turned out to be 140 µM. For `Nc1ncnc2c1ncn2[C@@H]1O[C@H](CO)[C@H]2OP(=O)(O)O[C@H]21` [2′,3′-cAMP], the “turnover to 2′-AMP seen in crystal” value in assay [2] is reported as “the reaction product is bound in the crystals grown in the presence of the substrate”.

The record behind these values is article PMC5283653, “Structural aspects of nucleotide ligand binding by a bacterial 2H phosphoesterase” (PLoS ONE, 2017).
